In PubChem BioAssay (NCI):
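All cell lines were grown in 96-well plates and treated with compound for 48 hours. At the TGI there is no net growth.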

Key:
Assay in all cases: NCI-60 cell line screen, 48 h
[1] = test system: 786-0 renal
[2] = test system: A498 renal
[3] = test system: A549 NSCLC
[4] = test system: ACHN renal
[5] = test system: BT-549 breast
[6] = test system: CAKI-1 renal
[7] = test system: CCRF-CEM leukemia
[8] = test system: COLO 205 colon
[9] = test system: DU-145 prostate
[10] = test system: EKVX NSCLC
[11] = test system: HCC-2998 colon
[12] = test system: HCT-116 colon
[13] = test system: HCT-15 colon
[14] = test system: HL-60(TB) leukemia
[15] = test system: HOP-62 NSCLC
[16] = test system: HS 578T breast
[17] = test system: HT29 colon
[18] = test system: IGROV1 ovarian
[19] = test system: KM12 colon
[20] = test system: LOX IMVI melanoma
[21] = test system: M14 melanoma
[22] = test system: MALME-3M melanoma
[23] = test system: MCF7 breast
[24] = test system: MDA-MB-231 breast
[25] = test system: MDA-MB-435
[26] = test system: MDA-N
[27] = test system: MOLT-4 leukemia
[28] = test system: NCI-H226 lung
[29] = test system: NCI-H23 lung
[30] = test system: NCI-H460 lung
[31] = test system: NCI-H522 lung
[32] = test system: NCI/ADR-RES ovarian
[33] = test system: OVCAR-3 ovarian
[34] = test system: OVCAR-4 ovarian
[35] = test system: OVCAR-5 ovarian
[36] = test system: OVCAR-8 ovarian
[37] = test system: PC-3 prostate
[38] = test system: RPMI-8226 leukemia
[39] = test system: RXF 393 renal
[40] = test system: SF-268 CNS
[41] = test system: SF-295 CNS
[42] = test system: SF-539 CNS
[43] = test system: SK-MEL-2 melanoma
[44] = test system: SK-MEL-28 melanoma
[45] = test system: SK-MEL-5 melanoma
[46] = test system: SK-OV-3 ovarian
[47] = test system: SN12C renal
[48] = test system: SNB-19 CNS
[49] = test system: SNB-75 CNS
[50] = test system: SR leukemia
[51] = test system: SW-620 colon
[52] = test system: T-47D breast
[53] = test system: TK-10 renal
[54] = test system: U251 CNS
[55] = test system: UACC-257 melanoma
[56] = test system: UACC-62 melanoma
[57] = test system: UO-31 renal
[58] = test system: K-562 leukemia

In the case of `COc1ccc(-c2c3ccccc3c(-c3ccc(OCCBr)cc3)c3ccccc23)cc1`, the TGI [1] was greater than 100 µM, the TGI [2] was greater than 100 µM and the TGI [3] was greater than 100 µM. It also gave a TGI [4] greater than 100 µM, a TGI [5] greater than 100 µM and a TGI [6] greater than 100 µM. The TGI [7] was greater than 100 µM, the TGI [8] was greater than 100 µM and the TGI [9] was greater than 100 µM. The TGI [10] was greater than 100 µM, the TGI [11] was greater than 100 µM and the TGI [12] was greater than 100 µM. The TGI [13] was greater than 100 µM, the TGI [14] was greater than 100 µM and the TGI [15] was greater than 100 µM. For the same molecule, the TGI [16] was greater than 100 µM, the TGI [17] was greater than 100 µM and the TGI [18] was greater than 100 µM. The TGI [19] was greater than 100 µM, the TGI [20] was greater than 100 µM and the TGI [21] was greater than 100 µM. It also gave a TGI [22] greater than 100 µM, a TGI [23] greater than 100 µM and a TGI [24] greater than 100 µM. It also gave a TGI [25] greater than 100 µM, a TGI [26] greater than 100 µM and a TGI [27] greater than 100 µM. It also gave a TGI [28] greater than 100 µM, a TGI [29] greater than 100 µM and a TGI [30] greater than 100 µM. It also gave a TGI [31] greater than 100 µM, a TGI [32] greater than 100 µM and a TGI [33] greater than 100 µM. It also gave a TGI [34] greater than 100 µM, a TGI [35] greater than 100 µM and a TGI [36] greater than 100 µM. It also gave a TGI [37] greater than 100 µM, a TGI [38] greater than 100 µM and a TGI [39] greater than 100 µM. For the same molecule, the TGI [40] was greater than 100 µM, the TGI [41] was greater than 100 µM and the TGI [42] was greater than 100 µM. It also gave a TGI [43] greater than 100 µM, a TGI [44] greater than 100 µM and a TGI [45] greater than 100 µM. The TGI [46] was greater than 100 µM, the TGI [47] was greater than 100 µM and the TGI [48] was greater than 100 µM. For the same molecule, the TGI [49] was greater than 100 µM, the TGI [50] was greater than 100 µM and the TGI [51] was greater than 100 µM. The TGI [52] was greater than 100 µM, the TGI [53] was greater than 100 µM and the TGI [54] was greater than 100 µM. The TGI [55] was greater than 100 µM, the TGI [56] was greater than 100 µM and the TGI [57] was 1.61 µM.
Work on `Clc1ccc(Cl)c(NNc2cc(Cl)ccc2Cl)c1` yielded a TGI [1] greater than 10 µM, a TGI [2] greater than 10 µM and a TGI [3] greater than 10 µM. It also gave a TGI [4] of 7.43 µM, a TGI [5] greater than 10 µM and a TGI [6] greater than 10 µM. For the same molecule, the TGI [7] was greater than 10 µM, the TGI [8] was greater than 10 µM and the TGI [9] was greater than 10 µM. The TGI [10] was greater than 10 µM, the TGI [11] was greater than 10 µM and the TGI [12] was greater than 10 µM. For the same molecule, the TGI [13] was greater than 10 µM, the TGI [14] was greater than 10 µM and the TGI [15] was greater than 10 µM. It also gave a TGI [16] greater than 10 µM, a TGI [17] greater than 10 µM and a TGI [18] greater than 10 µM. For the same molecule, the TGI [58] was greater than 10 µM, the TGI [19] was greater than 10 µM and the TGI [20] was greater than 10 µM. The TGI [21] was greater than 10 µM, the TGI [22] was 9.7 µM and the TGI [23] was greater than 10 µM. The TGI [24] was greater than 10 µM, the TGI [25] was greater than 10 µM and the TGI [26] was greater than 10 µM. The TGI [27] was greater than 10 µM, the TGI [28] was greater than 10 µM and the TGI [29] was 7.18 µM. For the same molecule, the TGI [30] was greater than 10 µM, the TGI [31] was greater than 10 µM and the TGI [32] was 9 µM. For the same molecule, the TGI [33] was 7.81 µM, the TGI [34] was greater than 10 µM and the TGI [35] was greater than 10 µM. It also gave a TGI [36] greater than 10 µM, a TGI [37] greater than 10 µM and a TGI [38] greater than 10 µM. It also gave a TGI [39] greater than 10 µM, a TGI [40] greater than 10 µM and a TGI [41] greater than 10 µM. For the same molecule, the TGI [42] was greater than 10 µM, the TGI [43] was 8.6 µM and the TGI [44] was greater than 10 µM. It also gave a TGI [45] of 6.35 µM, a TGI [46] greater than 10 µM and a TGI [47] greater than 10 µM. It also gave a TGI [48] greater than 10 µM, a TGI [50] greater than 10 µM and a TGI [51] greater than 10 µM. The TGI [52] was greater than 10 µM, the TGI [53] was greater than 10 µM and the TGI [54] was greater than 10 µM. It also gave a TGI [55] greater than 10 µM and a TGI [56] greater than 10 µM.
Work on `CCCCCC(=O)n1[nH]c(=O)n(-c2ccc(OC)cc2)c1=O` yielded a TGI [1] greater than 100 µM, a TGI [3] greater than 100 µM and a TGI [4] greater than 100 µM. The TGI [5] was greater than 100 µM, the TGI [6] was greater than 100 µM and the TGI [7] was greater than 100 µM. It also gave a TGI [8] greater than 100 µM, a TGI [9] greater than 100 µM and a TGI [10] greater than 100 µM. The TGI [11] was greater than 100 µM, the TGI [12] was greater than 100 µM and the TGI [13] was greater than 100 µM. It also gave a TGI [14] greater than 100 µM, a TGI [15] greater than 100 µM and a TGI [16] greater than 100 µM. The TGI [17] was greater than 100 µM, the TGI [18] was greater than 100 µM and the TGI [58] was greater than 100 µM. It also gave a TGI [19] greater than 100 µM, a TGI [20] greater than 100 µM and a TGI [21] greater than 100 µM. The TGI [22] was greater than 100 µM, the TGI [23] was greater than 100 µM and the TGI [24] was greater than 100 µM. For the same molecule, the TGI [25] was greater than 100 µM, the TGI [26] was greater than 100 µM and the TGI [27] was greater than 100 µM. For the same molecule, the TGI [28] was greater than 100 µM, the TGI [29] was greater than 100 µM and the TGI [30] was greater than 100 µM. It also gave a TGI [31] greater than 100 µM, a TGI [32] greater than 100 µM and a TGI [33] greater than 100 µM. The TGI [34] was greater than 100 µM, the TGI [35] was greater than 100 µM and the TGI [36] was greater than 100 µM. It also gave a TGI [37] greater than 100 µM, a TGI [38] greater than 100 µM and a TGI [39] greater than 100 µM. For the same molecule, the TGI [40] was greater than 100 µM, the TGI [41] was greater than 100 µM and the TGI [43] was greater than 100 µM. The TGI [44] was greater than 100 µM, the TGI [45] was greater than 100 µM and the TGI [46] was greater than 100 µM. It also gave a TGI [47] greater than 100 µM, a TGI [48] greater than 100 µM and a TGI [49] greater than 100 µM. For the same molecule, the TGI [50] was greater than 100 µM, the TGI [51] was greater than 100 µM and the TGI [52] was greater than 100 µM. It also gave a TGI [53] greater than 100 µM, a TGI [54] greater than 100 µM and a TGI [55] greater than 100 µM. The TGI [56] was greater than 100 µM and the TGI [57] was greater than 100 µM.
